According to patent US9290745B2, “Luciferase biosensor” (PROMEGA CORPORATION, priority 2003, dated 2016):

Biological target: T1, Luc2-CaM fusion (UniProt P08659+P0DP23, D3I/E2D/N119G/N50D)
T1 construct: made in house; host or cells: cell-free: TnT Coupled Reticulocyte Lysate System
Test: C-terminal modulated luciferase fusion system (calmodulin)
Assay type: biochemical, human

Compound | effect on EGTA-induced increase in luminescence (1 μl 100 mM CaCl2 added after EGTA) | increase of luminescence (EGTA final concentration 3 mM, Luc2-CaM TnT lysate in LAR)
[Ca+2].[Cl-].[Cl-] [Ca^+2, CaCl2] | can be reversed | –
O=C(O)CN(CCOCCOCCN(CC(=O)O)CC(=O)O)CC(=O)O [EGTA] | – | about 9 fold
